The values below come from patent US20160129011A1, “BICYCLO 2,3-BENZODIAZEPINES AND SPIROCYCLICALLY SUBSTITUTED 2,3-BENZODIAZEPINES” (BAYER PHARMA AKTIENGESELLSCHAFT, priority 2013, published 2016).

For assay [1], the system named is LOX-IMVI cells. The assay can be described thus: Cell proliferation assay (alamarBlue), LOX IMVI. In kind it is cell-based. As to conditions: Homo sapiens, melanoma (BRAF mutated) cell line, 72 h incubation. As to the method: (§1) In accordance with the invention, the ability of the substances to inhibit cell proliferation was determined. Cell viability was determined by means of the alamarBlue® reagent (Invitrogen) in a Victor X3 Multilabel Reader (Perkin Elmer). The excitation wavelength was 530 nm and the emission wavelength […].
The LOX-IMVI cells (NCI-60) were sown at a concentration of 1000 cells/well in 100 μl of growth medium (RPMI1640, 10% FCS) on 96-well microtitre plates.
(§2) The MDA-MB-231 cells (DSMZ, ACC 732) were sown at a concentration of 4000 cells/well in 100 μl of growth medium (DMEM/Ham's F12 medium, 10% FCS) on 96-well microtitre plates. After overnight incubation at 37° C., the fluorescence values (CI values) were determined. Then the plates were treated with various substance dilutions (1E-5 M, 3E-6 M, 1E-6 M, 3E-7 M, 1E-7 M, 3E-8 M, 1E-8 M) and incubated at 37° C. for 72 (MV4-11, LOX-IMVI cells), 96 (MOLM-13, B16F10, […] cells), 120 (MOLP-8, KMS-12-PE cells) or 168 (LAPC-4 cells) hours. Subsequently, the fluorescence values were determined (CO values). For the data analysis, the CI values were subtracted from the CO values and the results were compared between cells which had been treated with various dilutions of the substance or only with buffer solution. This was used to calculate the IC50 values (substance concentration required for 50% inhibition of cell proliferation). […]
(In general: Alamar Blue is a resazurin reagent that responds to reducing activity.)

In assay [2] the test system is MOLP-8 cells. The assay can be described thus: Cell proliferation assay (alamarBlue), MOLP-8. As to conditions: Homo sapiens, MOLP-8; multiple myeloma cell line, 120 h incubation. Type of assay: cell-based. As to the method:
as §1
The MOLP-8 cells (DSMZ, ACC 569) were sown at a concentration of 4000 cells/well in 100 μl of growth medium (RPMI1640, 20% FCS) on 96-well microtitre plates.
(§3) The MDA-MB-231 cells (DSMZ, ACC 732) were sown at a concentration of 4000 cells/well in 100 μl of growth medium (DMEM/Ham's F12 medium, 10% FCS) on 96-well microtitre plates. After overnight incubation at 37° C., the fluorescence values (CI values) were determined. Then the plates were treated with various substance dilutions (1E-5 M, 3E-6 M, 1E-6 M, 3E-7 M, 1E-7 M, 3E-8 M, 1E-8 M) and incubated at 37° C. for 72 (MV4-11, LOX-IMVI cells), 96 (MOLM-13, B16F10, […] cells), 120 (MOLP-8, KMS-12-PE cells) or 168 (LAPC-4 cells) hours. Subsequently, the fluorescence values were determined (CO values). For the data analysis, the CI values were subtracted from the CO values and the results were compared between cells which had been treated with various dilutions of the substance or only with buffer solution. This was used to calculate the IC50 values (substance concentration required for 50% inhibition of cell proliferation).
(§4) The substances were examined in the cell lines of Table 1 which, in an exemplary manner, represent the stated indications: […]

The target of assay [3] is T1, BRD4 (BD1) (Homo sapiens, UniProt O60885).
T1 construct: longer constructs also being possible, preferably amino acids 44-168; made in house; host or cells: E. coli
The assay can be described thus: Binding assay BRD4/acetylated peptide H4 (TR-FRET protein-protein interaction assay). Particulars: BRD4 (BD1) / acetylated histone H4 peptide. An outline of the steps:
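His6-tagged BRD4 BD1 (aa 67-152, E. coli-expressed, typically 10 nM) was used with a biotinylated tetra-acetylated H4 peptide, and compounds at 0.1 nM–20 μM in duplicate. After 10 min preincubation, mixtures were incubated 1 h at 22 °C, then ≥3 h at 4 °C. Read-out was the TR-FRET 665/622 nm ratio (Eu-streptavidin to anti-His-XL665); IC50 from a 4-parameter fit.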
A general note: Time-resolved FRET reads energy transfer from a long-lived donor to a nearby acceptor.

The subject of assay [4] is MDA-MB-231 cells. The assay can be described thus: Cell proliferation assay (alamarBlue), MDA-MB-231. As to conditions: Homo sapiens, mammary carcinoma cell line, 96 h incubation. In kind it is cell-based. As to the method:
as §1, §3, §4

The subject of assay [5] is KMS-12-PE cells. The assay can be described thus: Cell proliferation assay (alamarBlue), KMS-12-PE. As to conditions: Homo sapiens, multiple myeloma cell line, 120 h incubation. Type of assay: cell-based. As to the method:
as §1
The KMS-12-PE cells (DSMZ, ACC 606) were sown at a concentration of 4000 cells/well in 100 μl of growth medium (RPMI1640, 20% FCS) on 96-well microtitre plates.
as §2

Assay [6] relates to MV4-11 cells. The assay can be described thus: Cell proliferation assay (alamarBlue), MV4-11. In kind it is cell-based. As to conditions: Homo sapiens, acute myeloid leukaemia cell line, 72 h incubation. As to the method: as §1
The MV4-11 cells (ATCC, CRL 9591) were sown at a concentration of 5000 cells/well in 100 μl of growth medium (RPMI1640, 10% FCS) on 96-well microtitre plates.
as §2

Assay [7] relates to LAPC-4 cells. The assay can be described thus: Cell proliferation assay (alamarBlue), LAPC-4. As to conditions: Homo sapiens, LAPC4; prostate cancer cell line, 1 nM methyltrienolone, 168 h incubation. In kind it is cell-based. The protocol: as §1
The LAPC-4 cells (ATCC, PTA-1441TM) were sown at a concentration of 4000 cells/well in 100 μl of growth medium (RPMI1640, 2 mM L-glutamine, 10% cFCS) on 96-well microtitre plates. One day later, the LAPC-4 cells were treated with 1 nM methyltrienolone and various substance dilutions.
The MDA-MB-231 cells (DSMZ, ACC 732) were sown at a concentration of 4000 cells/well in 100 μl of growth medium (DMEM/Ham's F12 medium, 10% FCS) on 96-well microtitre plates. After overnight incubation at 37° C., the fluorescence values (CI values) were determined. Then the plates were treated with various substance dilutions (1E-5 M, 3E-6 M, 1E-6 M, 3E-7 M, 1E-7 M, 3E-8 M, 1E-8 M) and incubated at 37° C. for 72 (MV4-11, LOX-IMVI cells), 96 (MOLM-13, B16F10, […] cells), 120 (MOLP-8, KMS-12-PE cells) or 168 (LAPC-4 cells) hours. Subsequently, the fluorescence values were determined (CO values). […]

The subject of assay [8] is B16F10 cells. The assay can be described thus: Cell proliferation assay (alamarBlue), B16F10. Particulars: Mus musculus, B16-F10; melanoma (BRAF wild-type) cell line, 96 h incubation. In kind it is cell-based. As to the method: as §1
The B16F10 cells (ATCC, CRL-6475) were sown at a concentration of 300-500 cells/well in 100 μl of growth medium (DMEM with phenol red, 10% FCS) on 96-well microtitre plates.
as §3, §4

The subject of assay [9] is MOLM-13 cells. The assay can be described thus: Cell proliferation assay (alamarBlue), MOLM-13. Type of assay: cell-based. As to conditions: Homo sapiens, MOLM-13; acute myeloid leukaemia cell line, 96 h incubation. The protocol: as §1
The MOLM-13 cells (DSMZ, ACC 554) were sown at a concentration of 4000 cells/well in 100 μl of growth medium (RPMI1640, 10% FCS) on 96-well microtitre plates.
as §3, §4

Broadly, the IC50 is the concentration that inhibits the measured activity by half.

`CNC(=O)N1N=C(c2ccc(N3CC4(CCS4(=O)=O)C3)cc2)c2cc(OC)c(OC)cc2C[C@@H]1C` [Example 3.1, (4S)-1-[4-(1,1-Dioxido-1-thia-6-azaspiro[3.3]hept-6-yl)phenyl]-7,8-dimethoxy-N,4-dimethyl-4,5-dihydro-3H-2,3-benzodiazepine-3-carboxamide]: the IC50 in assay [1] came out at 280 nM; in [2], 40 nM; in assay [3], 20 nM; in [4], 80 nM; in assay [5], 50 nM; in assay [6] it was 40 nM. Further, the IC50 in assay [7] was determined as 20 nM; in assay [8], 40 nM; in assay [9] it was 70 nM.

In the case of `CNC(=O)N1N=C(c2ccc(N3CC4(CN(C)C4)C3)cc2)c2cc(OC)c(OC)cc2CC1C` (racemic) [Example 38, (±)-7,8-Dimethoxy-N,4-dimethyl-1-[4-(6-methyl-2,6-diazaspiro[3.3]hept-2-yl)phenyl]-4,5-dihydro-3H-2,3-benzodiazepine-3-carboxamide], the 50% inhibitory concentration (IC50) in assay [2] came out at 140 nM; in assay [3], 100 nM; in assay [8], 400 nM; in assay [9], 170 nM.

For `CNC(=O)N1N=C(c2ccc(N3CC4(CCC4)C3)cc2)c2cc(OC)c(OC)cc2CC1C` (racemic) [Example 37, (±)-1-[4-(2-Azaspiro[3.3]hept-2-yl)phenyl]-7,8-dimethoxy-N,4-dimethyl-4,5-dihydro-3H-2,3-benzodiazepine-3-carboxamide], the IC50 stood at 450 nM in assay [2], 170 nM in assay [3], 420 nM in assay [8] and 420 nM in [9].

As to `CNC(=O)N1N=C(c2ccc(N3CCCC4(COC4)C3)cc2)c2cc(OC)c(OC)cc2CC1C` (racemic) [Example 11, (±)-7,8-dimethoxy-N,4-dimethyl-1-[4-(2-oxa-6-azaspiro[3.5]non-6-yl)phenyl]-4,5-dihydro-3H-2,3-benzodiazepine-3-carboxamide], the 50% inhibitory concentration (IC50) in assay [2] turned out to be 100 nM; in [3], 60 nM; in [8], 100 nM; in [9], 160 nM.

With `CNC(=O)N1N=C(c2ccc(N3CCC4(COC4)C3)cc2)c2cc(OC)c(OC)cc2CC1C` (racemic) [Example 29, (±)-7,8-dimethoxy-N,4-dimethyl-1-[4-(2-oxa-6-azaspiro[3.4]oct-6-yl)phenyl]-4,5-dihydro-3H-2,3-benzodiazepine-3-carboxamide], the IC50 was 90 nM in assay [2], 50 nM in assay [3], 100 nM in assay [8] and 220 nM in assay [9].

Consider `CNC(=O)N1N=C(c2ccc(N3CCC4(CC3)COC4)cc2)c2cc(OC)c(OC)cc2CC1C` (racemic) [Example 12, (±)-7,8-dimethoxy-N,4-dimethyl-1-[4-(2-oxa-7-azaspiro[3.5]non-7-yl)phenyl]-4,5-dihydro-3H-2,3-benzodiazepine-3-carboxamide], for which the IC50 in [2] stood at 140 nM; in assay [3], 80 nM; in assay [8], 170 nM; in assay [9] it was 220 nM.

For `CNC(=O)N1N=C(c2ccc(N3CC4(CCS4(=O)=O)C3)cc2)c2cc(-n3nc(C)cc3C)ccc2C[C@@H]1C` [Example 17.2, (4S)-8-(3,5-Dimethyl-1H-pyrazol-1-yl)-1-[4-(1,1-dioxido-1-thia-6-azaspiro[3.3]hept-6-yl)phenyl]-N,4-dimethyl-4,5-dihydro-3H-2,3-benzodiazepine-3-carboxamide], the IC50 in [2] is 60 nM; in [3], 10 nM; in [8], 80 nM; in assay [9], 100 nM.

For `CNC(=O)N1N=C(c2cccc(N3CC4(CCS4(=O)=O)C3)c2)c2cc(OC)c(OC)cc2CC1C` (racemic) [Example 14, 1-[3-(1,1-dioxido-1-thia-6-azaspiro[3.3]hept-6-yl)phenyl]-7,8-dimethoxy-N,4-dimethyl-4,5-dihydro-3H-2,3-benzodiazepine-3-carboxamide], the IC50 was 240 nM in assay [2], 170 nM in assay [3], 260 nM in [8] and 330 nM in assay [9].

As for `CNC(=O)N1N=C(c2ccc(F)c(N3CC4(CCS4(=O)=O)C3)c2)c2cc(OC)c(OC)cc2CC1C` (racemic) [Example 15, (±)-1-[3-(1,1-dioxido-1-thia-6-azaspiro[3.3]hept-6-yl)-4-fluorophenyl]-7,8-dimethoxy-N,4-dimethyl-4,5-dihydro-3H-2,3-benzodiazepine-3-carboxamide], the IC50 in [2] turned out to be 480 nM; in [3], 250 nM; in assay [8] it was 590 nM; in assay [9] it was 600 nM.

Turning to `CNC(=O)N1N=C(c2ccc(N3CC4(CN(Cc5ccccc5)C4)C3)cc2)c2cc(OC)c(OC)cc2CC1C` (racemic) [Example 10, (±)-1-[4-(6-benzyl-2,6-diazaspiro[3.3]hept-2-yl)phenyl]-7,8-dimethoxy-N,4-dimethyl-4,5-dihydro-3H-2,3-benzodiazepine-3-carboxamide], the IC50 worked out at 80 nM in assay [2], 80 nM in [3], 150 nM in [8] and 150 nM in assay [9].

For `CNC(=O)N1N=C(c2ccc(N3C[C@@H]4C[C@H]3CN4C)cc2)c2cc(OC)c(OC)cc2CC1C` (relative stereo) [Example 40, [1S-(1R*,4R*)]-7,8-Dimethoxy-N,4-dimethyl-1-[4-(5-methyl-2,5-diazabicyclo[2.2.1]hept-2-yl)phenyl]-4,5-dihydro-3H-2,3-benzodiazepine-3-carboxamide], the IC50 in [2] was 240 nM; in assay [3], 180 nM; in [8], 450 nM; in assay [9], 390 nM.

As for `CNC(=O)N1N=C(c2ccc(N3CC4(CCS4(=O)=O)C3)cc2)c2cc(-n3nc(C)cc3C)ccc2C[C@H]1C` [Example 17.1, (4R)-8-(3,5-Dimethyl-1H-pyrazol-1-yl)-1-[4-(1,1-dioxido-1-thia-6-azaspiro[3.3]hept-6-yl)phenyl]-N,4-dimethyl-4,5-dihydro-3H-2,3-benzodiazepine-3-carboxamide], the 50% inhibitory concentration (IC50) in assay [2] stood at 4320 nM; in assay [3], 1470 nM; in assay [8], 5590 nM; in assay [9], 6740 nM.

Take `CNC(=O)N1N=C(c2ccc(F)c(N3C[C@@H]4C[C@H]3CN4)c2)c2cc(OC)c(OC)cc2CC1C` (relative stereo) [Example 20, [1S-(1R*,4R*)]-1-[3-(2,5-diazabicyclo[2.2.1]hept-2-yl)-4-fluorophenyl]-7,8-dimethoxy-4,5-dihydro-N,4-dimethyl-3H-2,3-benzodiazepine-3-carboxamide]: the IC50 in assay [2] amounted to 770 nM; in assay [3] it was 410 nM; in assay [8], 1430 nM; in assay [9], 1070 nM.
